Test results published in ChEMBL document CHEMBL5143569.

The compounds below were run against T1, Tyrosine-protein phosphatase non-receptor type 11 (Homo sapiens) (UniProt Q06124). Conditions: filed as negative allosteric modulator.
T1 sequence (whole entry): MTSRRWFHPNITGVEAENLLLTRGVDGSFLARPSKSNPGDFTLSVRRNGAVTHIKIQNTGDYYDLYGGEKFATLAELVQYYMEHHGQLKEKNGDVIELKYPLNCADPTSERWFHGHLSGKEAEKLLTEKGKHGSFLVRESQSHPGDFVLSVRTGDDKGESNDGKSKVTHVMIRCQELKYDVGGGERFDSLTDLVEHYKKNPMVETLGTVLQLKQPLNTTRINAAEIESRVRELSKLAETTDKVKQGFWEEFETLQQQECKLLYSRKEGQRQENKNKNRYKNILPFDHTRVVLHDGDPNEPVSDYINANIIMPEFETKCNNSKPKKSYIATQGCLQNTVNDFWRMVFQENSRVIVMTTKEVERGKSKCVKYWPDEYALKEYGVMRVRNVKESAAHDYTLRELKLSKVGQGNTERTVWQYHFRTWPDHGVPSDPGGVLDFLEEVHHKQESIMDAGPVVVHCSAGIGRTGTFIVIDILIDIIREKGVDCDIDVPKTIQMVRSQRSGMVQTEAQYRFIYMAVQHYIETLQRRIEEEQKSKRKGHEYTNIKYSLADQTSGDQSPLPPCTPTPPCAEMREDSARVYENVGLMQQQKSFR
Description: Allosteric inhibition of recombinant human SHP2 assessed as change in melting temperature by SYPRO orange dye based thermal shift assay

Q: For `CC1(N)CCN(c2cnc(Sc3cccc(Cl)c3Cl)c(N)n2)CC1`, which ΔTm is on record?
A: 6.24 °C

Q: `Nc1nc(N2CCNCC2)cnc1-c1cccc(Cl)c1Cl` was tested. Which ΔTm did it give?
A: 3.01 °C

Q: Which ΔTm does the source give for `COc1ccccc1Sc1ncc(N2CCC(C)(N)CC2)nc1N` here?
A: 3.79 °C

Q: Which ΔTm does the source give for `CC1(N)CCN(c2cnc(Sc3ccccc3F)c(N)n2)CC1` here?
A: 2.88 °C

Q: Which ΔTm does the source give for `Cc1ccc(-c2ncc(N3CCC(C)(N)CC3)nc2N)cc1` here?
A: 0.42 °C

Q: How did the ΔTm turn out when `CC1(N)CCN(c2cnc(Sc3ccccc3)c(N)n2)CC1` was run?
A: 1.72 °C

Q: With `CC1(CN)CCN(c2cnc(Sc3cccc(Cl)c3Cl)c(N)n2)CC1` as the compound, how does the ΔTm read?
A: 7.01 °C

Q: For `CC1(N)CCN(c2cnc(Sc3ccccc3C(F)(F)F)c(N)n2)CC1`, which ΔTm is on record?
A: 3.45 °C

Q: With `CC1(N)CCN(c2cnc(-c3cccc(F)c3F)c(N)n2)CC1` as the compound, how does the ΔTm read?
A: 0.52 °C

Q: With `CNC1CCN(c2cnc(-c3cccc(Cl)c3Cl)c(N)n2)CC1` as the compound, how does the ΔTm read?
A: 3.06 °C

Q: Which ΔTm does the source give for `NCC1CCN(c2cnc(-c3cccc(Cl)c3Cl)c(N)n2)CC1` here?
A: 3.67 °C

Q: Which ΔTm does the source give for `Nc1nc(N2CCC(O)CC2)cnc1-c1cccc(Cl)c1Cl` here?
A: 0.36 °C

Q: For `CC1(N)CCN(c2cnc(Sc3ccccc3Br)c(N)n2)CC1`, which ΔTm is on record?
A: 4.47 °C

Q: `CC1(N)CCN(c2cnc(-c3cccc(Cl)c3Cl)c(N)n2)CC1` was tested. Which ΔTm did it give?
A: 4.37 °C

Q: For `CC1(N)CCN(c2cnc(Sc3ccccc3Cl)c(N)n2)CC1`, which ΔTm is on record?
A: 4.13 °C

Q: How did the ΔTm turn out when `CC1(N)CCN(c2cnc(-c3ccc(C#N)cc3)c(N)n2)CC1` was run?
A: 0.275 °C

Q: With `CC1(N)CCN(c2cnc(SC3CCCCC3)c(N)n2)CC1` as the compound, how does the ΔTm read?
A: 0.88 °C

Q: For `CN1CCN(c2cnc(-c3cccc(Cl)c3Cl)c(N)n2)CC1`, which ΔTm is on record?
A: 3.2 °C

Q: How did the ΔTm turn out when `CC1(N)CCN(c2cnc(Sc3cccc4ccccc34)c(N)n2)CC1` was run?
A: 3.6 °C

Q: For `Cc1ccccc1Sc1ncc(N2CCC(C)(N)CC2)nc1N`, which ΔTm is on record?
A: 1.75 °C

Q: Which ΔTm does the source give for `CC1(O)CCN(c2cnc(-c3cccc(Cl)c3Cl)c(N)n2)CC1` here?
A: 0.435 °C

Q: How did the ΔTm turn out when `NCC1CCN(c2cnc(Sc3cccc(Cl)c3Cl)c(N)n2)CC1` was run?
A: 4.93 °C

Q: With `Nc1nc(N2CCC(N)CC2)cnc1-c1cccc(Cl)c1Cl` as the compound, how does the ΔTm read?
A: 1.72 °C

Q: `CC1(N)CCN(c2cnc(Sc3cccc(Cl)c3)c(N)n2)CC1` was tested. Which ΔTm did it give?
A: 1.7 °C

Q: With `CC1(N)CCN(c2cnc(Sc3ccc4ccccc4c3)c(N)n2)CC1` as the compound, how does the ΔTm read?
A: 2.23 °C

Q: How did the ΔTm turn out when `CC1(N)CCN(c2cnc(Sc3ccc(Cl)cc3)c(N)n2)CC1` was run?
A: 0.43 °C

Q: Which ΔTm does the source give for `NCCC1CCN(c2cnc(-c3cccc(Cl)c3Cl)c(N)n2)CC1` here?
A: 2.31 °C

Q: Which ΔTm does the source give for `CC1(N)CCN(c2cnc(SCc3ccccc3Cl)c(N)n2)CC1` here?
A: 0.44 °C

Q: `CC1(N)CCN(c2cnc(SCc3ccccc3)c(N)n2)CC1` was tested. Which ΔTm did it give?
A: 0.38 °C

Q: For `Nc1nc(N2CC[C@H](N)C2)cnc1-c1cccc(Cl)c1Cl`, which ΔTm is on record?
A: 1.92 °C

Q: How did the ΔTm turn out when `CN(CCN)c1cnc(-c2cccc(Cl)c2Cl)c(N)n1` was run?
A: 1.06 °C
